Reference: ChEMBL document CHEMBL1649138, “In vitro activity of Isavuconazole against Aspergillus species and zygomycetes according to the methodology of the European Committee on Antimicrobial Susceptibility Testing” (Antimicrob Agents Chemother, 2009)
≈ marks a conversion by molar mass, not a printed value.

Experiments:
Aspergillus fumigatus [1] = assay: Antifungal activity against Aspergillus fumigatus by EUCAST method; format: functional
Aspergillus terreus [2] = assay: Antifungal activity against amphotericin B-resistant Aspergillus terreus by EUCAST method; format: functional
Aspergillus flavus [3] = assay: Antifungal activity against Aspergillus flavus by EUCAST method; format: functional
Aspergillus niger [4] = assay: Antifungal activity against Aspergillus niger by EUCAST method; format: functional
Rhizomucor [5] = assay: Antifungal activity against Rhizomucor by EUCAST method; format: functional
Absidia [6] = assay: Antifungal activity against Absidia by EUCAST method; format: functional
Rhizopus [7] = assay: Antifungal activity against Rhizopus by EUCAST method; format: functional
Mucor [8] = assay: Antifungal activity against Mucor by EUCAST method; format: functional
Cunninghamella [9] = assay: Antifungal activity against Cunninghamella by EUCAST method; format: functional
Aspergillus fumigatus [10] = assay: Antifungal activity against Aspergillus fumigatus hyphae by EUCAST method; format: functional
Aspergillus terreus [11] = assay: Antifungal activity against amphotericin B-resistant Aspergillus terreus hyphae by EUCAST method; format: functional
Aspergillus flavus [12] = assay: Antifungal activity against Aspergillus flavus hyphae by EUCAST method; format: functional
Aspergillus niger [13] = assay: Antifungal activity against Aspergillus niger hyphae by EUCAST method; format: functional
Rhizomucor [14] = assay: Antifungal activity against Rhizomucor hyphae by EUCAST method; format: functional
Absidia [15] = assay: Antifungal activity against Absidia hyphae by EUCAST method; format: functional
Rhizopus [16] = assay: Antifungal activity against Rhizopus hyphae by EUCAST method; format: functional
Mucor [17] = assay: Antifungal activity against Mucor hyphae by EUCAST method; format: functional
Cunninghamella [18] = assay: Antifungal activity against Cunninghamella hyphae by EUCAST method; format: functional
Aspergillus fumigatus [19] = assay: Fungicidal activity against Aspergillus fumigatus; format: functional
Aspergillus terreus [20] = assay: Fungicidal activity against amphotericin B-resistant Aspergillus terreus; format: functional
Aspergillus flavus [21] = assay: Fungicidal activity against Aspergillus flavus; format: functional
Aspergillus niger [22] = assay: Fungicidal activity against Aspergillus niger; format: functional
Rhizomucor [23] = assay: Fungicidal activity against Rhizomucor; format: functional
Absidia [24] = assay: Fungicidal activity against Absidia; format: functional
Rhizopus [25] = assay: Fungicidal activity against Rhizopus; format: functional
Mucor [26] = assay: Fungicidal activity against Mucor; format: functional
Cunninghamella [27] = assay: Fungicidal activity against Cunninghamella; format: functional
Aspergillus fumigatus [28] = assay: Antifungal activity against Aspergillus fumigatus by broth microdilution method; format: functional
Aspergillus flavus [29] = assay: Antifungal activity against Aspergillus flavus by broth microdilution method; format: functional
Aspergillus terreus [30] = assay: Antifungal activity against amphotericin B-resistant Aspergillus terreus by broth microdilution method; format: functional
Aspergillus niger [31] = assay: Antifungal activity against Aspergillus niger by broth microdilution method; format: functional
Plasma = assay: Plasma concentration in human; format: ADME, cell-free

In the case of `C[C@@H](c1nc(-c2ccc(C#N)cc2)cs1)[C@](O)(Cn1cncn1)c1cc(F)ccc1F` [ISAVUCONAZOLE], the MIC50 (Aspergillus fumigatus [1]) is reported as 1 µg/mL (≈ 2.29 µM), the MIC90 (Aspergillus fumigatus [1]) is reported as 1 µg/mL (≈ 2.29 µM) and the MIC50 (Aspergillus terreus [2]) is reported as 0.5 µg/mL (≈ 1.14 µM). It also gave an MIC90 (Aspergillus terreus [2]) of 2 µg/mL (≈ 4.57 µM), an MIC50 (Aspergillus flavus [3]) of 1 µg/mL (≈ 2.29 µM) and an MIC90 (Aspergillus flavus [3]) of 2 µg/mL (≈ 4.57 µM). The MIC50 (Aspergillus niger [4]) was 2 µg/mL (≈ 4.57 µM), the MIC90 (Aspergillus niger [4]) was 4 µg/mL (≈ 9.14 µM) and the MIC50 (Rhizomucor [5]) was greater than 8 µg/mL. The MIC90 (Rhizomucor [5]) was greater than 8 µg/mL, the MIC50 (Absidia [6]) was 4 µg/mL (≈ 9.14 µM) and the MIC90 (Absidia [6]) was greater than 8 µg/mL. For the same molecule, the MIC50 (Rhizopus [7]) was 4 µg/mL (≈ 9.14 µM), the MIC90 (Rhizopus [7]) was greater than 8 µg/mL and the MIC50 (Mucor [8]) was greater than 8 µg/mL. For the same molecule, the MIC90 (Mucor [8]) was greater than 8 µg/mL, the MIC50 (Cunninghamella [9]) was 4 µg/mL (≈ 9.14 µM) and the MIC90 (Cunninghamella [9]) was greater than 8 µg/mL. The MIC90 (Aspergillus fumigatus [10]) was 1 µg/mL (≈ 2.29 µM), the MIC90 (Aspergillus terreus [11]) was 2 µg/mL (≈ 4.57 µM) and the MIC90 (Aspergillus flavus [12]) was 2 µg/mL (≈ 4.57 µM). For the same molecule, the MIC90 (Aspergillus niger [13]) was 8 µg/mL (≈ 18.3 µM), the MIC90 (Rhizomucor [14]) was greater than 8 µg/mL and the MIC90 (Absidia [15]) was greater than 8 µg/mL. For the same molecule, the MIC90 (Rhizopus [16]) was greater than 8 µg/mL, the MIC90 (Mucor [17]) was greater than 8 µg/mL and the MIC90 (Cunninghamella [18]) was greater than 8 µg/mL. For the same molecule, the MIC (Aspergillus fumigatus [19]) was 1 µg/mL (≈ 2.29 µM), the MIC90 (Aspergillus fumigatus [19]) was 1 µg/mL (≈ 2.29 µM) and the MIC90 (Aspergillus terreus [20]) was 2 µg/mL (≈ 4.57 µM). The MIC90 (Aspergillus flavus [21]) was 2 µg/mL (≈ 4.57 µM), the MIC90 (Aspergillus niger [22]) was greater than 8 µg/mL and the MIC90 (Rhizomucor [23]) was greater than 8 µg/mL. For the same molecule, the MIC90 (Absidia [24]) was greater than 8 µg/mL, the MIC90 (Rhizopus [25]) was greater than 8 µg/mL and the MIC90 (Mucor [26]) was greater than 8 µg/mL. For the same molecule, the MIC90 (Cunninghamella [27]) was greater than 8 µg/mL, the MIC (Aspergillus fumigatus [28]) was 0.63 µg/mL (≈ 1.44 µM) and the MIC (Aspergillus flavus [29]) was 0.76 µg/mL (≈ 1.74 µM). For the same molecule, the MIC (Aspergillus terreus [30]) was 0.68 µg/mL (≈ 1.55 µM), the MIC (Aspergillus niger [31]) was 2.36 µg/mL (≈ 5.39 µM) and the Cp (Plasma) was greater than 1700 ng/mL.

Molecule `CC[C@@H]([C@H](C)O)n1ncn(-c2ccc(N3CCN(c4ccc(OC[C@@H]5CO[C@@](Cn6cncn6)(c6ccc(F)cc6F)C5)cc4)CC3)cc2)c1=O` [POSACONAZOLE] has an MIC50 (Aspergillus fumigatus [1]) of 0.5 µg/mL (≈ 0.713 µM), an MIC90 (Aspergillus fumigatus [1]) of 1 µg/mL (≈ 1.43 µM) and an MIC (Aspergillus terreus [2]) of 0.125 µg/mL (≈ 0.178 µM). It also gave an MIC50 (Aspergillus terreus [2]) of 0.125 µg/mL (≈ 0.178 µM), an MIC90 (Aspergillus terreus [2]) of 0.5 µg/mL (≈ 0.713 µM) and an MIC50 (Aspergillus flavus [3]) of 0.125 µg/mL (≈ 0.178 µM). For the same molecule, the MIC90 (Aspergillus flavus [3]) was 0.5 µg/mL (≈ 0.713 µM), the MIC (Aspergillus niger [4]) was 0.25 µg/mL (≈ 0.357 µM) and the MIC50 (Aspergillus niger [4]) was 0.25 µg/mL (≈ 0.357 µM). The MIC90 (Aspergillus niger [4]) was 0.5 µg/mL (≈ 0.713 µM), the MIC (Rhizomucor [5]) was 1 µg/mL (≈ 1.43 µM) and the MIC50 (Rhizomucor [5]) was 1 µg/mL (≈ 1.43 µM). It also gave an MIC90 (Rhizomucor [5]) of 4 µg/mL (≈ 5.71 µM), an MIC (Absidia [6]) of 0.5 µg/mL (≈ 0.713 µM) and an MIC50 (Absidia [6]) of 0.5 µg/mL (≈ 0.713 µM). It also gave an MIC90 (Absidia [6]) of 1 µg/mL (≈ 1.43 µM), an MIC50 (Rhizopus [7]) of 2 µg/mL (≈ 2.85 µM) and an MIC90 (Rhizopus [7]) of 4 µg/mL (≈ 5.71 µM). It also gave an MIC50 (Mucor [8]) of 1 µg/mL (≈ 1.43 µM), an MIC90 (Mucor [8]) of 1 µg/mL (≈ 1.43 µM) and an MIC (Cunninghamella [9]) of 1 µg/mL (≈ 1.43 µM). It also gave an MIC50 (Cunninghamella [9]) of 1 µg/mL (≈ 1.43 µM), an MIC90 (Cunninghamella [9]) of 1 µg/mL (≈ 1.43 µM) and an MIC90 (Aspergillus fumigatus [10]) of 0.5 µg/mL (≈ 0.713 µM). It also gave an MIC90 (Aspergillus terreus [11]) of 1 µg/mL (≈ 1.43 µM), an MIC90 (Aspergillus flavus [12]) of 1 µg/mL (≈ 1.43 µM) and an MIC (Aspergillus niger [13]) of 1 µg/mL (≈ 1.43 µM). The MIC90 (Aspergillus niger [13]) was 1 µg/mL (≈ 1.43 µM), the MIC90 (Rhizomucor [14]) was 8 µg/mL (≈ 11.4 µM) and the MIC (Absidia [15]) was 4 µg/mL (≈ 5.71 µM). For the same molecule, the MIC90 (Absidia [15]) was 4 µg/mL (≈ 5.71 µM), the MIC90 (Rhizopus [16]) was greater than 8 µg/mL and the MIC90 (Mucor [17]) was greater than 8 µg/mL. It also gave an MIC90 (Cunninghamella [18]) of 8 µg/mL (≈ 11.4 µM), an MIC90 (Aspergillus fumigatus [19]) of 2 µg/mL (≈ 2.85 µM) and an MIC90 (Aspergillus terreus [20]) of 2 µg/mL (≈ 2.85 µM). For the same molecule, the MIC90 (Aspergillus flavus [21]) was 2 µg/mL (≈ 2.85 µM), the MIC90 (Aspergillus niger [22]) was 4 µg/mL (≈ 5.71 µM) and the MIC90 (Rhizomucor [23]) was greater than 8 µg/mL. The MIC (Absidia [24]) was 4 µg/mL (≈ 5.71 µM), the MIC90 (Absidia [24]) was 4 µg/mL (≈ 5.71 µM) and the MIC90 (Rhizopus [25]) was greater than 8 µg/mL. For the same molecule, the MIC90 (Mucor [26]) was greater than 8 µg/mL, the MIC (Cunninghamella [27]) was greater than 8 µg/mL and the MIC90 (Cunninghamella [27]) was 8 µg/mL (≈ 11.4 µM).

For `C[C@@H](c1ncncc1F)[C@](O)(Cn1cncn1)c1ccc(F)cc1F` [VORICONAZOLE], the MIC50 (Aspergillus fumigatus [1]) was 1 µg/mL (≈ 2.86 µM), the MIC90 (Aspergillus fumigatus [1]) was 1 µg/mL (≈ 2.86 µM) and the MIC50 (Aspergillus terreus [2]) was 0.5 µg/mL (≈ 1.43 µM). For the same molecule, the MIC90 (Aspergillus terreus [2]) was 2 µg/mL (≈ 5.73 µM), the MIC50 (Aspergillus flavus [3]) was 1 µg/mL (≈ 2.86 µM) and the MIC90 (Aspergillus flavus [3]) was 1 µg/mL (≈ 2.86 µM). It also gave an MIC50 (Aspergillus niger [4]) of 2 µg/mL (≈ 5.73 µM), an MIC90 (Aspergillus niger [4]) of 2 µg/mL (≈ 5.73 µM) and an MIC (Rhizomucor [5]) greater than 8 µg/mL. The MIC50 (Rhizomucor [5]) was greater than 8 µg/mL, the MIC90 (Rhizomucor [5]) was greater than 8 µg/mL and the MIC (Absidia [6]) was greater than 8 µg/mL. It also gave an MIC50 (Absidia [6]) greater than 8 µg/mL, an MIC90 (Absidia [6]) greater than 8 µg/mL and an MIC (Rhizopus [7]) greater than 8 µg/mL. The MIC50 (Rhizopus [7]) was greater than 8 µg/mL, the MIC90 (Rhizopus [7]) was greater than 8 µg/mL and the MIC (Mucor [8]) was greater than 8 µg/mL. For the same molecule, the MIC50 (Mucor [8]) was greater than 8 µg/mL, the MIC90 (Mucor [8]) was greater than 8 µg/mL and the MIC (Cunninghamella [9]) was greater than 8 µg/mL. The MIC50 (Cunninghamella [9]) was greater than 8 µg/mL, the MIC90 (Cunninghamella [9]) was greater than 8 µg/mL and the MIC90 (Aspergillus fumigatus [10]) was 1 µg/mL (≈ 2.86 µM). The MIC90 (Aspergillus terreus [11]) was 1 µg/mL (≈ 2.86 µM), the MIC90 (Aspergillus flavus [12]) was 2 µg/mL (≈ 5.73 µM) and the MIC90 (Aspergillus niger [13]) was 4 µg/mL (≈ 11.5 µM). For the same molecule, the MIC (Rhizomucor [14]) was greater than 8 µg/mL, the MIC90 (Rhizomucor [14]) was greater than 8 µg/mL and the MIC (Absidia [15]) was greater than 8 µg/mL. It also gave an MIC90 (Absidia [15]) greater than 8 µg/mL, an MIC (Rhizopus [16]) greater than 8 µg/mL and an MIC90 (Rhizopus [16]) greater than 8 µg/mL. The MIC (Mucor [17]) was greater than 8 µg/mL, the MIC90 (Mucor [17]) was greater than 8 µg/mL and the MIC (Cunninghamella [18]) was greater than 8 µg/mL. It also gave an MIC90 (Cunninghamella [18]) greater than 8 µg/mL, an MIC90 (Aspergillus fumigatus [19]) of 4 µg/mL (≈ 11.5 µM) and an MIC90 (Aspergillus terreus [20]) of 2 µg/mL (≈ 5.73 µM). The MIC90 (Aspergillus flavus [21]) was 4 µg/mL (≈ 11.5 µM), the MIC90 (Aspergillus niger [22]) was 8 µg/mL (≈ 22.9 µM) and the MIC (Rhizomucor [23]) was greater than 8 µg/mL. It also gave an MIC90 (Rhizomucor [23]) greater than 8 µg/mL, an MIC (Absidia [24]) greater than 8 µg/mL and an MIC90 (Absidia [24]) greater than 8 µg/mL. It also gave an MIC (Rhizopus [25]) greater than 8 µg/mL, an MIC90 (Rhizopus [25]) greater than 8 µg/mL and an MIC (Mucor [26]) greater than 8 µg/mL. The MIC90 (Mucor [26]) was greater than 8 µg/mL, the MIC (Cunninghamella [27]) was greater than 8 µg/mL and the MIC90 (Cunninghamella [27]) was greater than 8 µg/mL.
